US12384808B2, “Modulators of TNF-α activity” (Forward Therapeutics, Inc., priority 2022, dated 2025)
Values belong to the molecule of their own block, whether it stands above or below them.

Molecular target: TNFα (Homo sapiens, UniProt P01375)
Assay: TNFα Induced HEK Blue Cellular Assay
Assay type: cell-based
Conditions: HEK Blue TNFα reporter cells, TNFα 100 pg/ml, 24 hrs at 37° C., secreted alkaline phosphatase (QUANTI-Blue) read at 620 nm; read-out: IC50 value
Description: TNFα Induced HEK Blue Cellular Assay
Test articles were diluted in DMSO and serially diluted into 384 well assay plate (Corning 3765), at final concentrations ranging from […] to 0.5 nM. HEK Blue™ TNFα reporter cells were added at a final density of 10,000 cell per well in assay media [DMEM (Gibco, cat #21063-029), 10% fetal bovine serum (ExcelBio, cat #FND500), 1% Penicillin-Streptomycin (Solarbio, cat #P1400-100]. TNFα (R&D 210-TA-020/CF) was then added to the assay plate at a final concentration of 100 pg/ml. This plate was then incubated for 24 hrs at 37° C. and 5% CO2. Secreted alkaline phosphatase expression was then measured using QUANTI-Blue™ (Invivogen), according to manufacturer instructions and read on an Envision microplate reader at 620 nm.
Inhibition data for test compound over a range of concentration was plotted as percentage inhibition of the test compound (100%=maximum inhibition). IC50 values were determined after correcting for background [(sample read−mean of low control)/(mean of high control−mean of low control)] where by the low control is DMSO without stimulation and high control is DMSO with stimulation. The IC50 is defined as the concentration of test compound which produces 50% inhibition and was quantified using the 4 parameter logistic equation to fit the data.

Sequence of TNFα (P01375 77-233 limits assumed): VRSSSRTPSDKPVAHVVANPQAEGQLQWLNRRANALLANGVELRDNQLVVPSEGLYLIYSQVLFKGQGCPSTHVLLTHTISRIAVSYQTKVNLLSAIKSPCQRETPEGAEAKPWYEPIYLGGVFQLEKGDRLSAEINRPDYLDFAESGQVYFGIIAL

SMILES: [2H]C([2H])([2H])N1C(=O)c2cccc(OC(F)F)c2[C@H]2C[C@@H]1c1nc3ccc(-c4cc(F)c(C(C)P(C)(C)=O)c(F)c4)cc3n12 (single isomer, unassigned) [Example 112, (7R,14R)-1-(difluoromethoxy)-11-(4-((S or R)-1-(dimethylphosphoryl)ethyl)-3,5-difluorophenyl)-6-(methyl-d3)-6,7-dihydro-7,14-methanobenzo[f]benzo[4,5]imidazo[1,2-a][1,4]diazocin-5(14H)-one]
IC50: < 100 nM

SMILES: [2H]C([2H])([2H])N1C(=O)c2cccc(OC(F)F)c2[C@H]2C[C@@H]1c1nc3ccc(-c4ccc([C@@H](C)P(C)(C)=O)c(F)c4C)cc3n12 (single isomer, unassigned) [Example 113, (7R,14R)-1-(difluoromethoxy)-11-(4-((R or S)-1-(dimethylphosphoryl)ethyl)-3-fluoro-2-methylphenyl)-6-(methyl-d3)-6,7-dihydro-7,14-methanobenzo[f]benzo[4,5]imidazo[1,2-a][1,4]diazocin-5(14H)-one]
IC50: < 100 nM

SMILES: [2H]C([2H])([2H])N1C(=O)c2cccc(OC(F)F)c2[C@H]2C[C@@H]1c1nc3ccc(-c4ccc([C@H](C)P(C)(C)=O)c(F)c4C)cc3n12 (single isomer, unassigned) [Example 114, (7R,14R)-1-(difluoromethoxy)-11-(4-((S or R)-1-(dimethylphosphoryl)ethyl)-3-fluoro-2-methylphenyl)-6-(methyl-d3)-6,7-dihydro-7,14-methanobenzo[f]benzo[4,5]imidazo[1,2-a][1,4]diazocin-5(14H)-one]
IC50: < 100 nM

SMILES: [2H]C([2H])([2H])N1C(=O)c2cccc(OC(F)F)c2[C@H]2C[C@@H]1c1nc3ccc(-c4cc(F)c(C(C)P(C)(C)=O)cc4C)cc3n12 (single isomer, unassigned) [Example 118, (7R,14R)-1-(difluoromethoxy)-11-(4-((R or S)-1-(dimethylphosphoryl)ethyl)-5-fluoro-2-methylphenyl)-6-(methyl-d3)-6,7-dihydro-7,14-methanobenzo[f]benzo[4,5]imidazo[1,2-a][1,4]diazocin-5(14H)-one]
IC50: < 100 nM

SMILES: [2H]C([2H])([2H])N1C(=O)c2cccc(OC(F)F)c2[C@H]2C[C@@H]1c1nc3ccc(-c4cc(F)c(C(C)P(C)(C)=O)cc4C)cc3n12 (single isomer, unassigned) [Example 119, (7R,14R)-1-(difluoromethoxy)-11-(4-((S or R)-1-(dimethylphosphoryl)ethyl)-5-fluoro-2-methylphenyl)-6-(methyl-d3)-6,7-dihydro-7,14-methanobenzo[f]benzo[4,5]imidazo[1,2-a][1,4]diazocin-5(14H)-one]
IC50: < 100 nM

SMILES: CP(C)(=O)c1ncc(-c2ccc3nc4n(c3c2)[C@@H]2C[C@H]4NC(=O)c3cccc(OC(F)F)c32)cn1 [Example 1, (7R,14R)-1-(difluoromethoxy)-11-(2-(dimethylphosphoryl)pyrimidin-5-yl)-6,7-dihydro-7,14-methanobenzo[f]benzo[4,5]imidazo[1,2-a][1,4]diazocin-5(14H)-one]
IC50: 100 to 1000 nM

SMILES: CN1C(=O)c2cccc(OC(F)F)c2[C@H]2C[C@@H]1c1nc3ccc(-c4ccc(P(C)(C)=O)nc4)cc3n12 [Example 2, (7R,14R)-1-(difluoromethoxy)-11-(6-(dimethylphosphoryl)pyridin-3-yl)-6-methyl-6,7-dihydro-7,14-methanobenzo[f]benzo[4,5]imidazo[1,2-a][1,4]diazocin-5(14H)-one]
IC50: < 100 nM

SMILES: CP(C)(=O)c1ccc(-c2ccc3nc4n(c3c2)[C@@H]2C[C@H]4NC(=O)c3cccc(OC(F)F)c32)cn1 [Example 3, (7R,14R)-1-(difluoromethoxy)-11-(6-(dimethylphosphoryl)pyridin-3-yl)-6,7-dihydro-7,14-methanobenzo[f]benzo[4,5]imidazo[1,2-a][1,4]diazocin-5(14H)-one]
IC50: 100 to 1000 nM

Other lines, results leading:

IC50: < 100 nM
SMILES: [2H]C([2H])([2H])N1C(=O)c2cccc(OC(F)F)c2[C@H]2C[C@@H]1c1nc3ccc(-c4ccc(C(C)P(C)(C)=O)cc4)cc3n12 (single isomer, unassigned) [Example 85, (7R,14R)-1-(difluoromethoxy)-11-(4-((S or R)-1-(dimethylphosphoryl)ethyl)phenyl)-6-(methyl-d3)-6,7-dihydro-7,14-methanobenzo[f]benzo[4,5]imidazo[1,2-a][1,4]diazocin-5(14H)-one]

IC50: < 100 nM
SMILES: [2H]C([2H])([2H])N1C(=O)c2cccc(OC(F)F)c2[C@H]2C[C@@H]1c1nc3ccc(-c4ccc(C(C)P(C)(C)=O)cc4)cc3n12 (single isomer, unassigned) [Example 86, (7R,14R)-1-(difluoromethoxy)-11-(4-((R or S)-1-(dimethylphosphoryl)ethyl)phenyl)-6-(methyl-d3)-6,7-dihydro-7,14-methanobenzo[f]benzo[4,5]imidazo[1,2-a][1,4]diazocin-5(14H)-one]

IC50: < 100 nM
SMILES: [2H]C([2H])([2H])N1C(=O)c2cccc(OC(F)F)c2[C@H]2C[C@@H]1c1nc3ccc(-c4ccc(C(C)P(C)(C)=O)c(F)c4)cc3n12 (single isomer, unassigned) [Example 99, (7R,14R)-1-(difluoromethoxy)-11-(4-((S or R)-1-(dimethylphosphoryl)ethyl)-3-fluorophenyl)-6-(methyl-d3)-6,7-dihydro-7,14-methanobenzo[f]benzo[4,5]imidazo[1,2-a][1,4]diazocin-5(14H)-one]

IC50: < 100 nM
SMILES: [2H]C([2H])([2H])N1C(=O)c2cccc(OC(F)F)c2[C@H]2C[C@@H]1c1nc3ccc(-c4ccc(C(C)P(C)(C)=O)c(F)c4)cc3n12 (single isomer, unassigned) [Example 100, (7R,14R)-1-(difluoromethoxy)-11-(4-((R or S)-1-(dimethylphosphoryl)ethyl)-3-fluorophenyl)-6-(methyl-d3)-6,7-dihydro-7,14-methanobenzo[f]benzo[4,5]imidazo[1,2-a][1,4]diazocin-5(14H)-one]

IC50: < 100 nM
SMILES: [2H]C([2H])([2H])N1C(=O)c2cccc(OC(F)F)c2[C@H]2C[C@@H]1c1nc3ccc(-c4cc(F)c(C(C)P(C)(C)=O)c(F)c4)cc3n12 (single isomer, unassigned) [Example 109, (7R,14R)-1-(difluoromethoxy)-11-(4-((R or S)-1-(dimethylphosphoryl)ethyl)-3,5-difluorophenyl)-6-(methyl-d3)-6,7-dihydro-7,14-methanobenzo[f]benzo[4,5]imidazo[1,2-a][1,4]diazocin-5(14H)-one]

IC50: < 100 nM
SMILES: [2H]C([2H])([2H])N1C(=O)c2cccc(OC(F)F)c2[C@H]2C[C@@H]1c1nc3ccc(-c4ccc(C(C)(O)P(C)(C)=O)cc4)cc3n12 (single isomer, unassigned) [Example 110, (7R,14R)-1-(difluoromethoxy)-11-(4-((S or R)-1-(dimethylphosphoryl)-1-hydroxyethyl)phenyl)-6-(methyl-d3)-6,7-dihydro-7,14-methanobenzo[f]benzo[4,5]imidazo[1,2-a][1,4]diazocin-5(14H)-one]

IC50: < 100 nM
SMILES: [2H]C([2H])([2H])N1C(=O)c2cccc(OC(F)F)c2[C@H]2C[C@@H]1c1nc3ccc(-c4ccc([C@@](C)(O)P(C)(C)=O)cc4)cc3n12 (single isomer, unassigned) [Example 111, (7R,14R)-1-(difluoromethoxy)-11-(4-((R or S)-1-(dimethylphosphoryl)-1-hydroxyethyl)phenyl)-6-(methyl-d3)-6,7-dihydro-7,14-methanobenzo[f]benzo[4,5]imidazo[1,2-a][1,4]diazocin-5(14H)-one]
